The assay deals with mouse splenocytes. Put plainly: in vitro stimulation of mouse splenocytes/lymphocytes, cytokine release measured in supernatant by protein microarray chip. The format is cell-based. The note with it: for IL-6 produced: Example 1 and b94-b99; for cytokine milieu (TH1/TH2/TH17 bias): profile of AP-treated mouse splenocytes; for GCSF levels: Example 2 and b94-b99. How it is done: A total of 2×10^5 mouse splenocytes per well were cultured in a humidified atmosphere at 37° C. and 5% CO2 in round-bottomed 96-well culture plates for five days with the AP compounds […]. Concanavalin A ([…]) and culture media were used as positive and negative controls, respectively. Plates were centrifuged at 1,200 RPM for five minutes, and supernatants were collected. The resulting cytokine profile produced after lymphocyte stimulation was analyzed using a fluorescently-labeled protein microarray chip as indicated by the manufacturer (RayBiotech, Norcross, Ga., USA).
The immunomodulatory effect of the AP compounds was assessed by in vitro stimulation of mouse lymphocytes for five days.

[1] abbreviates: mouse splenocytes, five days, listed as AP-311.
The mark [2] stands for this setting: mouse splenocytes, five days, listed as AP-312.
The mark [3] stands for this setting: mouse splenocytes, five days, listed as AP-103.
The mark [4] stands for this setting: mouse splenocytes, five days, listed as AP-102.

Values joined by “and” are separate entries in the source; they are usually repeats but may differ in a detail not shown here. Identical values can stand only once.

`COc1ccc(C2C3=C(COC3=O)N(CCO)c3cc4c(cc32)OCCO4)c(OC)c1OC` (stereo not drawn) [AP311]: the “cytokine milieu (TH1/TH2/TH17 bias)” value is “strong TH2 cytokine milieu, followed by a TH17, and a smaller TH1 cytokine profile”. Also, under “mouse splenocytes, five days”, the IL-15 induced is recorded as 56 pg/mL, the IL-23 induced turned out to be 27 pg/mL, the IL-6 produced is given as 184 pg/mL and the “IL-6 induced (summary / preliminary data)” value is 551 pg/mL. Also, under setting [1], the IL-6 produced is reported as 183.76 pg/mL and the IL-23 induced is reported as 26.66 pg/mL.

Consider `COc1cccc(C2C3=C(COC3=O)N(CCO)c3cc4c(cc32)OCCO4)c1OC` (stereo not drawn) [AP312], for which the “cytokine milieu (TH1/TH2/TH17 bias)” value is “strong TH2 cytokine milieu, followed by a TH17, and a smaller TH1 cytokine profile”. Also, for the setting “mouse splenocytes, five days”, the IL-1b induced turned out to be 11.89 pg/mL, the “IL-12 (IL-12p70) induced” value is on record as 13 pg/mL, the IL-6 produced stood at 270 pg/mL and the “IL-6 induced (summary / preliminary data)” value was found to be 810 pg/mL. Moreover, under setting [2], the IL-6 produced is on record as 269.89 pg/mL and the “IL-12 (IL-12p70) induced” value is 27.89 pg/mL.

Turning to `COc1cc(C2C3=C(COC3=O)N(CCO)c3cc4c(cc32)CCC4)cc(OC)c1O` (stereo not drawn) [AP205], the “cytokine milieu (TH1/TH2/TH17 bias)” value is “high TH2-type cytokines, but equally comparably low TH1 and TH2”. Further, for the setting “mouse splenocytes, five days”, the IL-1a induced was 20 pg/mL and 20.29 pg/mL; the IL-1b induced was 19.45 pg/mL; the IL-9 induced is 30 pg/mL and 30.45 pg/mL; the “IL-12 (IL-12p70) induced” value was 60 pg/mL and 60.14 pg/mL. For the same compound, under “mouse splenocytes, five days”, the IL-15 induced is 94 pg/mL and 94.04 pg/mL; the IL-23 induced was 80 pg/mL and 79.96 pg/mL; the IL-6 produced was 1445 pg/mL and 1444.71 pg/mL; the GCSF levels was 2336 pg/mL and 2336.49 pg/mL. Moreover, where the note is “mouse splenocytes, five days”, the “G-CSF induced (summary / preliminary data)” value was 7166 pg/mL and the “IL-6 induced (summary / preliminary data)” value stood at 4351 pg/mL.

For the compound `COc1cccc(C2C3=C(COC3=O)N(CCO)c3cc4c(cc32)OCO4)c1` (stereo not drawn) [AP103], the “cytokine milieu (TH1/TH2/TH17 bias)” value was “high TH2-type cytokines, but equally comparably low TH1 and TH2”. In addition, under “mouse splenocytes, five days”, the IL-1b induced is listed as 3.95 pg/mL, the “IL-12 (IL-12p70) induced” value stood at 21 pg/mL, the IL-6 produced is recorded as 375 pg/mL and the GCSF levels is 858 pg/mL. Under “mouse splenocytes, five days”, the “G-CSF induced (summary / preliminary data)” value was 2575 pg/mL and the “IL-6 induced (summary / preliminary data)” value was found to be 1125 pg/mL. Also, under setting [3], the IL-6 produced was 535.06 pg/mL, the GCSF levels turned out to be 858.15 pg/mL and the “IL-12 (IL-12p70) induced” value was 35.70 pg/mL.

In the case of `COc1ccc(C2C3=C(COC3=O)N(CCO)c3cc4c(cc32)OCO4)cc1OC` (stereo not drawn) [AP102], the “cytokine milieu (TH1/TH2/TH17 bias)” value is “highest TH17 cytokine biased, followed by a close TH2 biased and a smaller TH1 cytokine milieu”. Also, under “mouse splenocytes, five days”, the IL-2 induced is 17 pg/mL, the “IL-12 (IL-12p70) induced” value came to 29 pg/mL, the IL-17 induced was determined as 294 pg/mL and the IL-6 produced is recorded as 257 pg/mL. Further, for the setting “mouse splenocytes, five days”, the GCSF levels came to 736 pg/mL, the “G-CSF induced (summary / preliminary data)” value is 2208 pg/mL and the “IL-6 induced (summary / preliminary data)” value worked out at 772 pg/mL. Under setting [4], the IL-6 produced is listed as 257.35 pg/mL, the GCSF levels was 735.83 pg/mL, the IL-2 induced was 17.36 pg/mL and the “IL-12 (IL-12p70) induced” value is 29.09 pg/mL.

As for `O=C1OCC2=C1C(c1ccccc1)c1cc3c(cc1N2CCO)OCO3` (stereo not drawn) [AP104], the “cytokine milieu (TH1/TH2/TH17 bias)” value was “high TH2-type cytokines, but equally comparably low TH1 and TH2”. In addition, where the note is “mouse splenocytes, five days”, the IFN-gamma induced is listed as 104.58 pg/mL; the “IL-2p70 induced (so in the source)” value is on record as 21.99 pg/mL; the IL-10 induced is 14 pg/mL and 13.78 pg/mL; the “IL-12 (IL-12p70) induced” value came to 22 pg/mL. Under “mouse splenocytes, five days”, the IL-23 induced was 58 pg/mL and 58.48 pg/mL; the IL-6 produced is 261 pg/mL and 260.85 pg/mL; the GCSF levels was 690 pg/mL and 690.39 pg/mL; the “G-CSF induced (summary / preliminary data)” value is 2071 pg/mL. Under “mouse splenocytes, five days”, the “IL-6 induced (summary / preliminary data)” value was found to be 782 pg/mL.

Source of the values: US12036270B2, “Method for immunomodulation of using aza-podophyllotoxin derivatives” (Sistema Universitario Ana G. Mendez, priority 2015, dated 2024).
